# Results published in patent US3952017A, “Tricyclic compounds” (Hoffmann-La Roche Inc., priority 1968, dated 1976).
# Structures can show the parent of a compound that is named as a salt. Where two headings read alike, the source gives them in different places.
# Key:
# salivation in rabbits = test: anticholinergic action: inhibition of pilocarpine-increased salivation in rabbits under light urethane narcosis; type: in vivo; conditions: for inhibition at 3 mg/kg: Oryctolagus cuniculus, 3 mg/kg i.v., pilocarpine 5 mg/kg s.c.
# Description: The low anticholinergic action can be shown by the lack of salivation inhibition in rabbits: The salivation in rabbits under light urethane narcosis was increased by pilocarpine injection (5 mg/kg. s.c.) and the amount of saliva was measured at 5-minute intervals. The inhibition of salivation is expressed as a percentage based upon the salivation of animals which only received pilocarpine.
# rats = test: antidepressive action: suppression of ptosis, seeking behavior, motility and sensitivity to stimulus in rats given 2-hydroxy-2-ethyl-3-isobutyl-9,10-dimethoxy-1,2,3,4,6,7-hexahydro-11bH-benzo[a,d]quinolizine hydrochloride; type: in vivo; conditions: 3 x 50 mg/kg p.o.; for Activity in % compared to Amitriptyline: Amitriptyline 100%
# Description: The same dosage was administered to a control group of 5 non-pretreated rats. The ratings include central and peripheral symptoms, which are characteristic for tricyclic antidepressants [cf. Ann. N.Y. Acad. Sci. 96, 279 (1962)]. […] These changes were recorded according to a rating scheme which utilized numbers. […] The stated percentages are compared with the values for Amitriptyline* (Amitriptyline 100%).
# mice = test: acute toxicity in mice (24-hour values); conditions: mouse, in vivo
# From the text: (§1) The low toxicity of the compounds of the invention can be illustrated by the acute toxicity of 1-methyl-10,11-dihydro-5-(3-dimethylaminopropyl)-5H-dibenzo[a,d]cycloheptene hydrochloride in mice (24-hour values): […]
# [1] = acute toxicity in mice (24-hour values); conditions: mouse, in vivo, mice, 24-hour values
# From the text: as §1
SMILES,inhibition at 3 mg/kg (salivation in rabbits) [%],Activity in % compared to Amitriptyline (rats) [%],further results
"Cc1cccc2c1C=Cc1ccccc1C2=CCC[N+](C)(C)[O-] [1-methyl-5-(3-dimethylaminopropylidene)-5H-dibenzo[a,d]cycloheptene N-oxide hydrochloride]",14,140,
"Cc1cccc2c1C=Cc1ccccc1C2=CCC[N+](C)(C)[O-] [1-methyl-5-(3-dimethylaminopropylidene)-5H-dibenzo[a,d]cycloheptene N-oxide]",,,"salivation inhibition / anticholinergic action (in words) (salivation in rabbits): absence of substantial anticholinergic action; antidepressive action (in words) (rats): excellent antidepressive action; antidepressive action (in words) (rats; listed as 1-methyl-5-(3-dimethylaminopropylidene)-5-H-dibenzo[a,d]cyclohehptene N-oxide): considerably increased antidepressive action; toxicity (in words) (mice): reduced toxicity"
"CNCCCC1c2ccccc2CCc2c(C)cccc21.Cl (stereo not shown) [1-Methyl-10,11-dihydro-5-(3-methylaminopropyl)-5H-dibenzo[a,d]cycloheptene hydrochloride]",40,180,
"CN(C)CCC=C1c2ccccc2CCc2ccccc21 [Amitriptyline, 5-(3-dimethylaminopropylidene)-dibenzo[a,d][1,4] cycloheptadiene, reference compound]",96,100,
"CNCCC=C1c2ccccc2C=Cc2c(C)cccc21.Cl [1-methyl-5-(3-methylaminopropylidene)-5H-dibenzo[a,d]cycloheptene hydrochloride]",60,230,
"CNCCC=C1c2ccccc2CCc2c(C)cccc21.Cl [1-methyl-10,11-dihydro-5-(3-methylaminopropylidene)-5H-dibenzo[a,d]cycloheptene hydrochloride]",50,140,
"Cc1cccc2c1CCc1ccccc1C2=CCCN(C)C.Cl [1-methyl-10,11-dihydro-5-(3-dimethylaminopropylidene)-5H-dibenzo[a,d]cycloheptene hydrochloride]",50,220,
"Cc1cccc2c1C=Cc1ccccc1C2=CCCN(C)C.Cl [1-methyl-5-(3-dimethylaminopropylidene)-5H-dibenzo[a,d]cycloheptene hydrochloride]",60,130,
"Cc1cccc2c1CCc1ccccc1C2CCCN(C)C.Cl (stereo not shown) [1-methyl-10,11-dihydro-5-(3-dimethylaminopropyl)-5H-dibenzo[a,d]cycloheptene hydrochloride]",50,180,"LD50 at 24 h ([1]; iv, i.v., read-out: LD50 i.v.): 25 to 50 mg/kg; LD50 at 24 h ([1]; po, p.o., read-out: LD50 p.o.): 300 to 600 mg/kg"
